From PubChem BioAssay AID1508612

Test: passive permeability, PAMPA, ADME assay (AID 1508612)
Conditions: pH 7.4, 30.0 min, 50.0 µM

`Cc1cc(-c2nnc3n2CCCCC3)c(C)n1-c1ccc(C(F)(F)F)cc1` and `Cc1cc(-c2nnc3n2CCCCC3)c(C)n1-c1ccc(Cl)c(Cl)c1` cannot be ordered by Papp: greater than 10000 nm/s for the first, greater than 10000 nm/s for the second.

Going from `CCOC(=O)c1c(NC(=O)CN2CCCCC2)sc2c1CCN(C(=O)OCC)C2` to `COc1ccc(NC(=O)c2c(C)cccc2C)cc1[S+](=O)([O-])N1CCCCCC1`, the Papp falls from greater than 10000 nm/s to 7380 nm/s.

`CCOC(=O)c1c(C)c(-c2ccccc2)n(CC(=O)NCc2ccccc2)c1C` and `Cc1ccccc1C(=O)N1CCc2cc(-c3nc(NC(=O)Cc4ccccc4)sc3C)ccc21` cannot be ordered by Papp: greater than 10000 nm/s for the first, greater than 10000 nm/s for the second.

`Cc1ccc(N(C)S(=O)(=O)c2ccc(-c3cnc(C4CC4)o3)cc2)cc1` and `COc1ccc(-c2cn[nH]c2-c2ccc(OC)cc2)cc1` cannot be ordered by Papp: greater than 10000 nm/s for the first, greater than 10000 nm/s for the second.

Going from `Fc1cnc(-c2ccccc2C(F)F)nc1NCc1ccc(-c2ccn[nH]2)cc1` to `Clc1ccc(Nc2nc(-c3ccncc3)nc3ccccc23)cc1Cl`, the Papp falls from greater than 10000 nm/s to 761 nm/s.

Compared with `O=C1Nc2ccccc2/C1=C\c1ccc(O)c(F)c1`, `O=C1Nc2ccccc2/C1=C/c1cccc(C(=O)O)c1` is lower in Papp: 3430 nm/s for the first, 12 nm/s for the second.

Compared with `O=C1CCc2cc(S(=O)(=O)Nc3ccc(F)c(Cl)c3)c(F)cc2N1`, `CC(=O)Nc1ccc(CN2CCc3nc(C(C)C)nc(-c4ccc(Cl)cc4)c3CC2)cc1` is higher in Papp: 8610 nm/s for the first, greater than 10000 nm/s for the second.

First: CN(C)c1cccc(-c2cnc(N3CCC(C(N)=O)CC3)nc2)c1
Second: CN(C)c1cccc(-c2ncc(F)c(N3CCC(C(N)=O)CC3)n2)c1
The Papp of the first is lower: 2730 nm/s for the first, 5990 nm/s for the second.

Compared with `CC(C)(C)c1ccc(-c2csc(N3CCC(C(N)=O)CC3)n2)cc1`, `N#Cc1ccc(-c2csc(N3CCC(C(N)=O)CC3)n2)cc1` is higher in Papp: 3700 nm/s for the first, 4060 nm/s for the second.

First: CCOc1ccc(OCC)c(NC(=O)C(NS(=O)(=O)c2ccc(Br)s2)c2ccccc2)c1 (centres undefined)
Second: CN(C(=O)CSc1nc2ccc(NC(=O)c3ccc(F)cc3)cc2s1)c1ccccc1
The Papp of the first is lower: 11 nm/s for the first, 7410 nm/s for the second.

Compared with `Cc1ccnc(NC(=S)N2CCN(c3ccc(C(F)(F)F)cc3[N+](=O)[O-])CC2)c1`, `COc1cc(-c2ccnc3c2c(C)nn3-c2cccc(C(F)(F)F)c2)ccc1O` is lower in Papp: greater than 10000 nm/s for the first, 931 nm/s for the second.

First: Cc1cc(F)ccc1-c1nc(NCCN=C(N)NC#N)nc2c1ccc(=O)n2-c1c(F)cccc1F
Second: CN1CCN(C(=O)c2ccc3cc(CCNc4ncnc5ccc(C#N)cc45)ccc3c2)CC1
The Papp of the first is lower: less than 10 nm/s for the first, 5450 nm/s for the second.

Compared with `CN1C[C@@H]2C[C@H]1CN2c1cc2c(cc1F)c(=O)c(C(=O)O)cn2C1CC1`, `O=C(O)c1ccncc1Nc1nn(CCN2CCC(F)(F)CC2)c2ccc(F)cc12` is higher in Papp: less than 10 nm/s for the first, 12 nm/s for the second.

`O=C(NCCCc1ccccc1)c1cccc(-c2cc(O)c3ncccc3c2)c1` and `O=C(O)c1ccnc(-c2cc(C(=O)NCCc3ccccc3)ccn2)c1` cannot be ordered by Papp: less than 10 nm/s for the first, less than 10 nm/s for the second.

Going from `O=C(Cc1ccc(-c2csc(Nc3ccc(F)cc3)n2)s1)N1CCOCC1` to `O=C(CSc1nc(-c2ccc(F)cc2)[nH]c1-c1ccc(F)cc1)Nc1ccc2c(c1)OCCO2`, the Papp falls from greater than 10000 nm/s to 110 nm/s.

First: Nc1c(-c2ccccc2)cc[nH]c1=O
Second: Nc1cc2nc3ccccc3oc-2cc1=O
The Papp of the first is higher: 6130 nm/s for the first, 1060 nm/s for the second.

Going from `COc1ccc(Cl)cc1C(=O)Nc1ccc(NC(=O)c2ccco2)cc1` to `COc1ccc(NC(=O)c2cc(-c3ccc[nH]3)n[nH]2)cc1OC`, the Papp falls from 9710 nm/s to 1200 nm/s.

First: Clc1ccccc1-c1nnc2sc(-c3ccc4c(c3)OCO4)nn12
Second: COc1cc(Nc2nc(-c3ccncc3)nc3ccccc23)ccc1Cl
The Papp of the first is higher: 9580 nm/s for the first, 198 nm/s for the second.

Going from `CCCC1=Nc2cc(C(=O)NC3CCCC3)ccc2Sc2ccc(C)cc21` to `Cc1ccccc1C(C(=O)NC1CCCC1)N(C(=O)Cn1cnc2ccccc21)c1cccc(F)c1` (centres undefined), the Papp rises from 6620 nm/s to greater than 10000 nm/s.

Compared with `CC(C)CNc1ccnc(NCc2csc(-c3ccccc3)n2)n1`, `O=C(Nc1nc(-c2ccccc2)cs1)c1ccncc1NS(=O)(=O)c1cccnc1` is lower in Papp: greater than 10000 nm/s for the first, 508 nm/s for the second.

Going from `Oc1ccc2[nH]cc(CCCCN3CC=C(c4ccccc4)CC3)c2c1` to `O=C(c1ccccc1)N1CCC(c2nn(-c3ccc(F)cc3)c(=O)[nH]2)CC1`, the Papp falls from greater than 10000 nm/s to 6790 nm/s.

First: NC(=O)C1CCN(c2nc(-c3ccc(N4CCCCC4)nc3)cs2)CC1
Second: NC(=O)C1CCN(c2nc(-c3cccc(Cl)c3)cs2)CC1
The Papp of the first is lower: 239 nm/s for the first, greater than 10000 nm/s for the second.

Going from `O=C(NC1CC1)c1nc(-c2cccnc2)c2ccccn12` to `CC(C)Oc1cccc(-c2ccnc(N3CCC(C(N)=O)CC3)n2)c1`, the Papp rises from 6520 nm/s to greater than 10000 nm/s.

First: O=C(Nc1ccc(F)c(C(F)(F)F)c1)Nc1nnc(-c2ccncc2)s1
Second: CCN1CCN(c2ccc(Nc3ccc(-c4ccc(C(N)=O)cc4)n4ncnc34)cc2)CC1
The Papp of the first is lower: 385 nm/s for the first, 7470 nm/s for the second.

First: CC(=O)c1c(C)[nH]c(C(=O)N(C)C)c1C
Second: CCC[C@@H]1CN(C(=O)c2ccc(-c3ccc(C)o3)cc2)C[C@H]1NC(C)=O
The Papp of the first is lower: 574 nm/s for the first, greater than 10000 nm/s for the second.

`COc1cc2c(c(OC)c1OC)-c1ccc(SC)c(=O)cc1C(N)CC2` (centres undefined) and `CCCOC(=O)c1ccc(Oc2c(-c3ccc(O)cc3O)n[nH]c2C)cc1` cannot be ordered by Papp: greater than 10000 nm/s for the first, greater than 10000 nm/s for the second.

First: COc1ccc(-n2nc(C3CCN(C(=O)c4ccccc4)CC3)[nH]c2=O)cc1
Second: CCN(c1cc(C#CCN2CCOCC2)cc(C(=O)NCc2c(C)cc(C)[nH]c2=O)c1C)C1CCC(N(C)CCOC)CC1 (centres undefined)
The Papp of the first is higher: 3310 nm/s for the first, 67.4 nm/s for the second.
